In brackets after ≈: the same amount, converted by molar mass. Read-outs that look alike come from different tables or passages of the source. Each block holds one compound with its values, some of them ahead of it.
Experiments:
[1] = compared with TBZ; cited from earlier work
dopamine receptors = conditions: cited from earlier work
[2] = Metabolism in rat liver microsome (RLM); format: in vitro ADME
Description: Rat liver microsome (RLM) study was conducted to investigate the generation of pharmaceutically active metabolites of Form 2 (+)-TBZ and TBZ racemate.

[3] = patients, dose escalation; cited from earlier work
[4] = Solubility in PBS with 0.2% (w/v) tween 20 at 37° C.; format: physicochemical; conditions: for solubility: PBS with 0.2% (w/v) tween 20, 37° C., overnight
Description: 20 mg Form 2 crystalline (+)-TBZ was dispersed into 1 ml PBS with 0.2% (w/v) tween 20. Then, this excessively saturated suspension was stirred overnight at 37° C. 0.8 ml of former suspension was transferred into 1.5 mL Eppendorf centrifuge tube. The undissolved solid was spun down using bench-top centrifuge at the rotation of 14000 rpm for 5 min.
• Flow rate: 0.3 mL/min • Column temp: 55° C. • Injection volume: 2 uL • Detection: 220 nm • Run time: 10 min • (+)-TBZ retention time: ˜3.5 min

[5] = in vivo; cited from earlier work
[6] = Powder flow property, angle of repose (USP 1174); format: physicochemical
From the text: The present application enables the production of crystalline (+)-TBZ in various particle size ranges and crystal morphology (e.g. rod-shaped crystals and more symmetric crystals). As API powder/crystalline flowability can be critical in the manufacture of a drug product, flow property of crystalline (+)-TBZ in the present application was investigated.

SMILES: COc1cc2c(cc1OC)[C@H]1C[C@H](O)[C@H](CC(C)C)CN1CC2 [(2S,3R,11bR)-DHTBZ]
sedative effects [1]: lack the unwanted sedative effects
binding at dopamine receptors (dopamine receptors): negligible binding

half-life ([2]; liver microsomes, rat liver microsome, read-out: Half-life): 10.6 min
less solubility compared to Form 2 crystalline (+)-TBZ ([4]; PBS with 0.2% w/v Tween 20): about 40%
solubility ([4]; aqueous with cosolvent or surfactant or cyclodextrin, thermodynamic from solid, read-out: Solubility): 36.4 µg/mL (≈ 115 µM)
SMILES: COc1cc2c(cc1OC)C1CC(=O)C(CC(C)C)CN1CC2 (racemic) [TBZ racemate, 1,3,4,6,7,11b-hexahydro-9,10-dimethoxy-3-(2-methylpropyl)-2H-benzo[a]quinolizin-2-one]
side-effect: akathisia [3]: 9.5%
side-effect: depression [3]: 15.0%
side-effect: drowsiness [3]: 36.5%
side-effect: insomnia [3]: 11.0%
side-effect: nervousness or anxiety [3]: 10.3%
side-effect: parkinsonism [3]: 28.5%
bioavailability [5]: low and variable

SMILES: COc1cc2c(cc1OC)[C@H]1CC(=O)[C@H](CC(C)C)CN1CC2 [Form 2 crystalline (+)-TBZ, (3R,11bR)-tetrabenazine]
(+)-DHTBZ concentration in RLM ([2]; 0 min): 0 ng/mL
(+)-TBZ concentration in RLM ([2]; 0 min): 2056 ng/mL
(−)-DHTBZ concentration in RLM ([2]; 0 min): 0 ng/mL
(−)-TBZ concentration in RLM ([2]; 0 min): 0 ng/mL
(+)-DHTBZ concentration in RLM ([2]; 15 min): 455 ng/mL
(+)-TBZ concentration in RLM ([2]; 15 min): 881 ng/mL
(−)-DHTBZ concentration in RLM ([2]; 15 min): 0 ng/mL
(−)-TBZ concentration in RLM ([2]; 15 min): 0 ng/mL
(+)-DHTBZ concentration in RLM ([2]; 30 min): 608 ng/mL
(+)-TBZ concentration in RLM ([2]; 30 min): 366 ng/mL
(−)-DHTBZ concentration in RLM ([2]; 30 min): 0 ng/mL
(−)-TBZ concentration in RLM ([2]; 30 min): 0 ng/mL
(+)-DHTBZ concentration in RLM ([2]; 45 min): 616 ng/mL
(+)-TBZ concentration in RLM ([2]; 45 min): 122 ng/mL
(−)-DHTBZ concentration in RLM ([2]; 45 min): 0 ng/mL
(−)-TBZ concentration in RLM ([2]; 45 min): 0 ng/mL
(+)-DHTBZ concentration in RLM ([2]; 60 min): 627 ng/mL
(+)-TBZ concentration in RLM ([2]; 60 min): 42 ng/mL
(−)-DHTBZ concentration in RLM ([2]; 60 min): 0 ng/mL
(−)-TBZ concentration in RLM ([2]; 60 min): 0 ng/mL
amounts of therapeutically active VMAT2 inhibitors, (+)-TBZ and (+)-DHTBZ, generated in RLM versus racemate TBZ ([2]; rat liver microsome): comparable amounts
half-life ([2]; rat liver microsome): 10.6 min
Response Angle ([6]; D50 15 μm): 45.3 ± 5.0 °
Response Angle ([6]; D50 35 μm): 43.3 ± 2.5 °
Response Angle ([6]; D50 50 μm): 36.7 ± 7.6 °
Response Angle ([6]; D50 80 μm, more symmetric crystals): 34.7 ± 1.2 °
Response Angle ([6]; D50 80 μm, more symmetric crystals, listed as more symmetric crystalline (+)-TBZ): about 35 °
Response Angle ([6]; D50 125 μm): 35.3 ± 2.3 °
Response Angle ([6]; Rod shape (80 μm)): 64.3 ± 1.2 °
Response Angle ([6]; Rod shape (80 μm), listed as rod-shaped crystalline (+)-TBZ): about 64 °
solubility [4]: 61.032 µg/mL (≈ 192 µM)

SMILES: COc1cc2c(cc1OC)[C@H]1C[C@@H](O)[C@H](CC(C)C)CN1CC2 [(2R,3R,11bR)-DHTBZ]
sedative effects [1]: lack the unwanted sedative effects
binding at dopamine receptors (dopamine receptors): negligible binding
